Results as given in patent US20110319484A1, “NEUROPROTECTIVE COMPOUNDS” (Parque Tecnologico de Ciencias de la Salud, priority 2009, published 2011).
Entries after “also recorded” stand apart in the source; their conditions may differ.

Assays:
[1] = Crossing of the blood-brain barrier by PAMPA in vitro assay; assay type: in vitro ADME, pig; settings: acid forms, 100 μM, pH 7.4, 18 h
Method: To that end, the PAMPA (Parallel Artificial Membrane Permeation Assay) assay was used, which uses a sandwich system contemplating the crossing of compounds by means of passive diffusion, preventing active transport.
A mixture of commercial lipids derived from pig brain with a phospholipid composition very similar to that which forms the human BBB, called PBL (Porcine Polar Brain Lipid), was used to mimic the BBB, and it was stored at −20° C. dissolved in dodecane at 100 μg/ml in glass vials. The verapamil and theophylline were prepared at 10 mM in DMSO, whereas the acid forms of NST0003, NST0004 and NST0005 were prepared in water and were activated with 0.1 N NaOH at 4° C. for 12 h.
At the time of the assay, 1.5 ml of the compounds to be evaluated at 100 μM were prepared in a phosphate buffer at pH 7.4, maintaining a constant concentration of DMSO of 1%. 5 μl of PBL at 20 μg/ml were added in a 96-well filter plate, with a polyvinylidene fluoride (PVDF) membrane, with a pore size of […] (MAIPN4550, Millipore). After 2 minutes, 300 μl of the phosphate buffer used to dilute the compounds were added. This plate was considered the “acceptor” plate and was placed in the top part of the sandwich. 300 μl of the compounds were added at 100 μM on another 96-well plate which is assembled with the previous one (MATRNP550 of Millipore) (called “donor”) and in triplicate. […] After that time, 100 μl of the wells of the donor plates and of the acceptor plates were transferred to a special 96-well plate for ultraviolet (UV) reading. […] The plate was introduced in a spectrophotometer in which a scan was carried out in UV from 230 to 498 nm, with readings every 4 nm. From the data provided by the spectrophotometer the percentage of barrier crossing as well as the effective permeability (Pe) were calculated by applying the following formula:
[formula] […] [formula] • [Drug]acceptor=Absorbance of the acceptor well • [Drug]equilibrium=Absorbance of the mean of the basal wells/2 • VA=Volume of the acceptor well=0.3 cm^3 • VD=Volume of the donor well=0.3 cm^3 • Area=0.24 cm^2 • Time=64,000 s

[2] = system: caspase 3/7 activation in SK-N-MC cells; test: Inhibition of camptothecin-induced caspase 3/7 activation (Apo-ONE kit); assay type: cell-based, human; settings: Homo sapiens, 24 h pretreatment at 100 μg/ml, then camptothecin 50 μM 6 h
Method: To that end, the inhibition caused by (1S,3R,7S,8S,8aR)-1,2,3,7,8,8a-hexahydro-3,7-dimethyl-8-[2-[(2R,4R)-tetrahydro-4-hydroxy-6-oxo-2H-pyran-2-yl]ethyl-1-naphthalenyl 2,2-dimethylpropanoate (NST0005) of apoptosis caused by the treatment with camptothecin (Campt) on the SK-N-MC cells in culture was analyzed following the working conditions specified in section 3.1. Apoptosis can be quantified by measuring effector caspase activation. Caspases (proteins belonging to the cysteine-protease group) mediate the cleavage of a series of proteins triggering the signaling cascade which leads cells to apoptosis. […] The active cellular caspases 3 or 7 cause the cleavage of the substrate, emitting fluorescence which is read by means of a fluorometer.
The effect of the pretreatment of the NST0005 compound at 40 and 100 μg/ml on caspase 3/7 activation caused by 50 μM of camptothecin (Campt) in the SK-N-MC cells was thus analyzed. […]
The cells were incubated (at 37° C. and 5% CO2) with these treatments for 6 h, after which time the lysis buffer and the substrate rhodamine 110 were added at the concentrations specified by the manufacturer; they were incubated at room temperature for 30 minutes and the cells were then frozen at −20° C. overnight. They were thawed the next day and the reading of the plate was taken in a fluorometer at 499 nm for excitation and 521 nm for emission.

**Q.** For `CCC(=O)O[C@H]1C[C@@H](C)C=C2C=C[C@H](C)[C@H](CC[C@@H]3C[C@@H](O)CC(=O)O3)[C@H]21` [NST0003, (1S,3R,7S,8S,8aR)-1,2,3,7,8,8a-hexahydro-3,7-dimethyl-8-[2-[(2R,4R)-tetrahydro-4-hydroxy-6-oxo-2H-pyran-2-yl]ethyl-1-naphthalenyl propanoate], which “crossing of the blood-brain barrier” value [1] is on record?
**A.** Its value is “capable of crossing the blood-brain barrier”.

**Q.** With `CC(C)C(=O)O[C@H]1C[C@@H](C)C=C2C=C[C@H](C)[C@H](CC[C@@H]3C[C@@H](O)CC(=O)O3)[C@H]21` [NST0004] as the compound, how does the “crossing of the blood-brain barrier” value [1] read?
**A.** Its value is “capable of crossing the blood-brain barrier”.

**Q.** What does the source list for `C[C@H]1C=C2C=C[C@H](C)[C@H](CC[C@@H]3C[C@@H](O)CC(=O)O3)[C@H]2[C@@H](OC(=O)C(C)(C)C)C1` [NST0005]?
**A.** inhibition at 100 µg/mL [2]: 33%; crossing of the blood-brain barrier [1]: highest capacity to cross the BBB; also recorded: capable of crossing the blood-brain barrier
